From article PMC8426299, “Effect of severe renal impairment on the pharmacokinetics of brigatinib” (Investigational New Drugs, 2021)
Entries after “also recorded” stand apart in the source; their conditions may differ. Like-named read-outs stand apart in the source and are kept apart here.

Experiments:
[1] = design: method as in ref 11 = [11]; PMID 31287236; doi:10.1002/cpdd.723; 11. Tugnait M Gupta N Hanley MJ Sonnichsen D Kerstein D Dorer DJ Venkatakrishnan K Narasimhan N Effects of strong CYP2C8 or CYP3A inhibition and CYP3A induction on the pharmacokinetics of brigatinib; settings: cited from earlier work
[2] = Safety assessment (adverse events, laboratory, ECG, vital signs) in the single-dose study; type: in vivo, human; settings: single 90 mg dose
Description: Adverse events were recorded throughout the study. Physical examinations were performed at screening and on days − 1 and 8; height, weight, and BMI were collected only at screening. Vital signs were recorded at screening; on day − 1; at 0.5, 1, 2, 3, 4, 6, 8, 12, 24, 36, 48, 60, 72, 96, 120, and 144 h after brigatinib administration; and on day 8. Electrocardiograms were conducted at screening, day − 1, before the brigatinib dose, 3 and 48 h after brigatinib, and on day 8. Clinical laboratory evaluations were performed at screening and on days − 1 and 8.
Descriptive statistics, including number of observations (n), arithmetic mean, standard deviation (SD), coefficient of variation (CV%), median, minimum, and maximum, were calculated for each time point for brigatinib plasma concentrations in each study group. Arithmetic mean; SD; CV%; median, minimum, and maximum values; and geometric mean and geometric CV% were calculated for all PK parameters except Tmax, which was reported as median (minimum, maximum). Statistical comparisons of brigatinib PK parameters (unbound) were made using a one-factor analysis of variance, and 90 % CIs for the geometric mean ratios (GMRs) were calculated for the comparison of Cmax, AUC0 − last, and AUC0−∞ between study groups. Descriptive statistics were used to present safety outcomes, including number and percentage of participants with adverse events.

[3] = cited from earlier work
[4] = system: cytochrome P450 (CYP) 3A4; design: method as in ref 5, 11 = [5]; 5. Alunbrig brigatinib [summary of product characteristics] (2020) Takeda Pharmaceutical Company Limited. https://www.alunbrig.com/assets/pi.pdf . Accessed 9 Mar 2021 || [11]; PMID 31287236; doi:10.1002/cpdd.723; 11. Tugnait M Gupta N Hanley MJ Sonnichsen D Kerstein D Dorer DJ Venkatakrishnan K Narasimhan N Effects of strong CYP2C8 or CYP3A inhibition and CYP3A induction on the pharmacokinetics of brigatinib; settings: in vitro; cited from earlier work
[5] = Urinary pharmacokinetics after single oral dose of brigatinib 90 mg; type: in vivo, human; settings: for CL renal: human, oral, 90 mg; for CL renal / Ae0–168, Range / Ae0–168, amount of brigatinib excreted from time zero to 168 hours, mean (SD) / Fe0–168, Range: urine
Description: Blood samples were collected before brigatinib administration (predose) and at 0.5, 1, 1.5, 2, 2.5, 3, 4, 6, 8, 12, 24, 36, 48, 60, 72, 96, 120, 144, and 168 h after brigatinib administration to determine plasma brigatinib concentrations. Urine was collected predose and during intervals (0–8, 8–12, 12–24, 24–48, 48–72, 72–96, 96–120, and 120–168 h) after brigatinib administration to determine urine brigatinib concentrations. Urine samples were subsequently diluted 50:50 (v:v) urine:isopropanol at the clinical site.
Plasma and urine samples were analyzed by Charles River Laboratories, Inc. (Worcester, MA, USA) by LC-MS/MS, as previously reported. Plasma samples were analyzed using a dual-range assay with a lower limit of quantitation of 0.100 ng/mL and an upper limit of 2500 ng/mL [11]. Urine samples were analyzed using a single-range assay with a lower limit of quantitation of 25.0 ng/mL and upper limit of 2500 ng/mL [11].
Individual participant plasma concentration-time profiles were analyzed via noncompartmental analysis methods using Phoenix WinNonlin (version 6.4) to estimate PK parameters. Plasma PK parameters calculated for brigatinib included maximum observed plasma concentration (Cmax); Tmax; area under the plasma concentration-time curve from time zero to the time of the last measurable concentration (AUC0 − last); AUC from time zero to infinity (AUC0−∞); terminal elimination half-life (t1/2); apparent oral clearance (CL/F); and apparent volume of distribution (V/F). The fraction of unbound brigatinib in plasma was determined using the following formula: % free (unbound) = [free brigatinib concentration measured in buffer after RED]/[total concentration measured in plasma] X 100. Unbound brigatinib plasma PK parameters (except unbound CL/F and V/F, which were calculated as total CL/F or total V/F divided by the overall mean fraction unbound) were calculated using the following formula: unbound PK parameter = (parameter based on total concentrations) x (individual participant’s overall mean fraction unbound value). Urinary PK parameters included the amount of brigatinib excreted from time zero to time t (Ae0 − t,), fraction of the dose excreted (%) from time zero to time t (Fe0 − t), and renal clearance (CLR).

[6] = design: method as in PMID 30570839; settings: cited from earlier work
2C8 = system: 2C8; design: method as in ref 5, 11 = [5]; 5. Alunbrig brigatinib [summary of product characteristics] (2020) Takeda Pharmaceutical Company Limited. https://www.alunbrig.com/assets/pi.pdf . Accessed 9 Mar 2021 || [11]; PMID 31287236; doi:10.1002/cpdd.723; 11. Tugnait M Gupta N Hanley MJ Sonnichsen D Kerstein D Dorer DJ Venkatakrishnan K Narasimhan N Effects of strong CYP2C8 or CYP3A inhibition and CYP3A induction on the pharmacokinetics of brigatinib; settings: in vitro; cited from earlier work
[7] = system: ALK-positive non–small cell lung cancer (NSCLC); design: method as in PMID 31756496; settings: cited from earlier work
[8] = NSCLC progressed on crizotinib, 180 mg qd with seven-day lead-in at 90 mg, median follow-up 24 months
[9] = patients with baseline brain metastases

- CL renal ([5]; Normal Renal Function (n=8), read-out: CLR, Range): 27.5 to 63.7 mL/min
- CL renal ([5]; Normal Renal Function (n=8), read-out: CLR, renal clearance, mean (SD)): 41.5 mL/min
- CL renal ([5]; Severe Renal Impairment (n=8), read-out: CLR, Range): 5.4 to 13.4 mL/min
- CL renal ([5]; Severe Renal Impairment (n=8), read-out: CLR, renal clearance, mean (SD)): 9.17 mL/min
- renal clearance as share of overall clearance of brigatinib ([5]; in vivo): approximately 25%
- renal clearance of unbound brigatinib, fold lower ([5]; severe renal impairment compared with normal renal function): approximately five-fold
- reduction of fraction of dose excreted in urine 0 to 168 h ([5]; severe renal impairment vs normal renal function): approximately 50%
- nonrenal clearance, percent lower ([5]; severe renal impairment vs normal renal function, derived from renal clearance share): approximately 50%
- Ae0–168, Range ([5]; Normal Renal Function (n=8)): 11.58 to 21.77 mg
- Ae0–168, amount of brigatinib excreted from time zero to 168 hours, mean (SD) ([5]; Normal Renal Function (n=8)): 16.90 (3.57) mg
- Fe0–168, Range ([5]; Normal Renal Function (n=8)): 12.9–24.2%
- Ae0–168, Range ([5]; Severe Renal Impairment (n=7)): 3.92 to 14.36 mg
- Ae0–168, amount of brigatinib excreted from time zero to 168 hours, mean (SD) ([5]; Severe Renal Impairment (n=7)): 7.58 (3.77) mg
- Fe0–168, Range ([5]; Severe Renal Impairment (n=7)): 4.36–16.0%
Structure (SMILES): COc1cc(N2CCC(N3CCN(C)CC3)CC2)ccc1Nc1ncc(Cl)c(Nc2ccccc2P(C)(C)=O)n1 [brigatinib]
- decrease of systemic exposure (AUC) ([1]; coadministration of strong CYP3A inducers): 80%
- increase of systemic exposure (AUC) ([1]; coadministration of strong CYP3A inhibitors): 101%
- effect on systemic exposure (AUC) ([1]; coadministration with a strong inhibitor of CYP2C8): did not meaningfully affect
- clinically significant laboratory values or electrocardiogram findings ([2]; all participants): no participant had clinically significant laboratory values or electrocardiogram findings
- adverse events ([2]; healthy volunteers with normal renal function (n = 8)): No healthy volunteers with normal renal function reported adverse events
- treatment-emergent adverse events ([2]; patients with severe renal impairment (n = 8)): Two patients with severe renal impairment reported three treatment-emergent adverse events
- dose proportionality / linearity of systemic exposure [3]: dose proportional over the dose range of 60 mg to 240 mg qd; also recorded: dose-linear and time-independent PK
- geometric mean accumulation ratio after repeat dosing [3]: 1.9 to 2.4
- oral dose excreted unchanged in the urine [3]: approximately 25%
- median time to reach maximum plasma concentration (Tmax) ([3]; postdose): 1 to 3 h
- contribution of CYP3A4 to metabolism [4]: primarily metabolized
- effect of a high-fat meal on total exposure (AUC) [6]: no effect
- contribution of 2C8 to metabolism (2C8): minor contribution
- independent review committee-assessed confirmed objective response rate (ORR) [7, 8]: 56%
- median progression-free survival (PFS) [7, 8]: 16.7 months
- confirmed intracranial ORR [7, 9]: 67%
- median intracranial PFS [7, 9]: 18.4 months
